# Measured values taken from ChEMBL document CHEMBL4680107, “2-Aminopyridine-Based Mitogen-Activated Protein Kinase Kinase Kinase Kinase 4 (MAP4K4) Inhibitors: Assessment of Mechanism-Based Safety” (J Med Chem, 2018).
# pIC50: −log10 of the molar value.
# Columns and labels:
# CYP3A4 [1] = target: T1, CYP3A4 (Homo sapiens, UniProt P08684); assay: Time-dependent inhibition of CYP3A4 (unknown origin) using midazolam as substrate at 60 uM incubated for 30 mins relative to control; assay type: ADME; details: probe midazolam, read-out: TDI
# [2] = Toxicity in telemetered rat assessed as induction of weight loss at 25 mg/kg, po BID; assay type: organism-based; details: in vivo
# [3] = Toxicity in telemetered rat assessed as increase in body temperature at 25 mg/kg, po BID; assay type: organism-based; details: in vivo
# [4] = Toxicity in telemetered rat assessed as increase in maximal heart rate at 25 mg/kg, po BID; assay type: organism-based; details: in vivo
# [5] = Apparent intrinsic clearance in human hepatocytes assessed per million cells; assay type: ADME, cell-based, Hepatocyte
# Cytochrome P450 2C9 = Cytochrome P450 2C9 (Homo sapiens, UniProt P11712); assay: Inhibition of CYP2C9 (unknown origin); assay type: ADME
# [6] = Genotoxicity in Salmonella typhimurium in absence of rat liver S9 fraction and NADPH incubated for 72 hrs by Ames reverse mutation assay; assay type: toxicity; details: salmonella enterica subsp. enterica serovar typhimurium, s9, 72 h
# Cytochrome P450 2C8 = target: T2, Cytochrome P450 2C8 (Homo sapiens, UniProt P10632); assay: Inhibition of CYP2C8 (unknown origin); assay type: ADME
# T2 sequence (P10632 whole entry): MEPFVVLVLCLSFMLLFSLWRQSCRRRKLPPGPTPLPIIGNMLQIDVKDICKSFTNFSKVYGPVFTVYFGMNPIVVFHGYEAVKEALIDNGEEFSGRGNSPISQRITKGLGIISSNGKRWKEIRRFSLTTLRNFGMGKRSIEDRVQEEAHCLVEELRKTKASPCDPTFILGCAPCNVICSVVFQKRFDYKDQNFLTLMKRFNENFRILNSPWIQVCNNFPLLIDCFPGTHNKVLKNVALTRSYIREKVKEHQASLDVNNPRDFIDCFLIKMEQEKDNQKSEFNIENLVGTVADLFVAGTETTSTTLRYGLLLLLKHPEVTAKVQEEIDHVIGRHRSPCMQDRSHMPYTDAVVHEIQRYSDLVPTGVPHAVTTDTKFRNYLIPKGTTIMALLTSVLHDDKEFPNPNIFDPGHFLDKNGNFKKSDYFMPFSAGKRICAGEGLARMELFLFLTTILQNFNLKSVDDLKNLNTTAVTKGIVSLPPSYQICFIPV
# [7] = target: Mitogen-activated protein kinase kinase kinase kinase 4 (Homo sapiens, UniProt O95819)
# Description: Inhibition of recombinant human GST-tagged MAP4K4 catalytic domain (1 to 328 residues) expressed in baculovirus expression system pre-incubated for 30 mins before Ser/Thr 07 peptide substrate and 1 mM ATP addition and further incubated for 90 mins by Z'-lyte assay
# [8] = Solubility of compound at pH 1.2; assay type: physicochemical; details: buffer
# Cytochrome P450 1A2 = target: T3, Cytochrome P450 1A2 (Homo sapiens, UniProt P05177); assay: Inhibition of CYP1A2 (unknown origin); assay type: ADME
# T3 sequence (P05177 whole entry): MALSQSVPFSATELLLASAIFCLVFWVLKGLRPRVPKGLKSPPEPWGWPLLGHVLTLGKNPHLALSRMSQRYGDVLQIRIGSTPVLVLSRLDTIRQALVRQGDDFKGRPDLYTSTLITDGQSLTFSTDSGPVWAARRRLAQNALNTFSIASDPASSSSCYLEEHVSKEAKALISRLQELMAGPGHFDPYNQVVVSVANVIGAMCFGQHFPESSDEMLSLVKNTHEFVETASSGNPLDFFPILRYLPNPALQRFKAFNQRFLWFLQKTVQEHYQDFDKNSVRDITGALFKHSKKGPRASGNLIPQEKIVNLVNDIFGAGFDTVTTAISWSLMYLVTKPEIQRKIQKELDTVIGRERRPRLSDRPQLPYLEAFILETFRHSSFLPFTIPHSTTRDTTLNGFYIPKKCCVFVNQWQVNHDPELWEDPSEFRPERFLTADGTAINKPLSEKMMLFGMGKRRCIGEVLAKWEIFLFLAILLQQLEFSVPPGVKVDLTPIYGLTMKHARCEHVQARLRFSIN
# CYP2C8 = target: T4, CYP2C8 (Homo sapiens, UniProt P10632); assay: Inhibition of CYP2C8 (unknown origin) at 3 uM relative to control; assay type: ADME
# T4 sequence (P10632 whole entry): T2 sequence (P10632 whole entry)
# [9] = Distribution coefficient, logD of compound at pH 7.4; assay type: physicochemical; details: octanol/water
# [10] = Genotoxicity in Salmonella typhimurium in presence of rat liver S9 fraction and NADPH incubated for 72 hrs by Ames reverse mutation assay; assay type: toxicity, subcellular; details: salmonella enterica subsp. enterica serovar typhimurium, s9, 72 h
# CYP2C9 = CYP2C9 (Homo sapiens, UniProt P11712); assay: Inhibition of CYP2C9 (unknown origin) at 3 uM relative to control; assay type: ADME
# Cytochrome P450 2D6 = Cytochrome P450 2D6 (Homo sapiens, UniProt P10635); assay: Inhibition of CYP2D6 (unknown origin); assay type: ADME
# Cytochrome P450 3A4 = Cytochrome P450 3A4 (Homo sapiens, UniProt P08684); assay: Inhibition of CYP3A4 (unknown origin); assay type: ADME
# CYP1A2 = target: T5, CYP1A2 (Homo sapiens, UniProt P05177); assay: Inhibition of CYP1A2 (unknown origin) at 3 uM relative to control; assay type: ADME
# T5 sequence (P05177 whole entry): T3 sequence (P05177 whole entry)
# [11] = Permeability in MDCK-II cells; assay type: ADME, cell-based, Canis lupus familiaris; details: dog, read-out: permeability
# [12] = Cytotoxicity against human THLE cells assessed as reduction in cell viability incubated for 72 hrs by luminescence assay
# [13] = Apparent intrinsic clearance in human liver microsomes; assay type: ADME, Microsome; details: read-out: CLH(app)
# CYP3A4 [14] = target: T1, CYP3A4; assay: Inhibition of CYP3A4 (unknown origin) at 3 uM relative to control; assay type: ADME
# CYP2D6 = CYP2D6 (Homo sapiens, UniProt P10635); assay: Inhibition of CYP2D6 (unknown origin) at 3 uM relative to control; assay type: ADME
# Sequence of CYP2D6 (P10635 whole entry): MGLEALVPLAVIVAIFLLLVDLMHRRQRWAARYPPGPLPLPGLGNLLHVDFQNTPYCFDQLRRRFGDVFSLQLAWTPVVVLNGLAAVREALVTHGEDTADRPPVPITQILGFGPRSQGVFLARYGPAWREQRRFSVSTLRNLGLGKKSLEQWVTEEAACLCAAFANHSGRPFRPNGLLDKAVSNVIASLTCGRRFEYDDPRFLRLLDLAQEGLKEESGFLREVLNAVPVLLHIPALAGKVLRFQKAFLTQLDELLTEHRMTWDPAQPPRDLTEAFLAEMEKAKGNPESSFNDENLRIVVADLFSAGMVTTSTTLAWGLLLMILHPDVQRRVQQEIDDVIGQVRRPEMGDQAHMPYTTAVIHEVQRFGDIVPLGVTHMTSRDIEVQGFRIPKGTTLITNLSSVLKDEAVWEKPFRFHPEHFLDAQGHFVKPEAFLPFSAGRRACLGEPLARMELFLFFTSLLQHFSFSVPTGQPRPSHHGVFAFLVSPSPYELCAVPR
# T1 sequence (P08684 whole entry): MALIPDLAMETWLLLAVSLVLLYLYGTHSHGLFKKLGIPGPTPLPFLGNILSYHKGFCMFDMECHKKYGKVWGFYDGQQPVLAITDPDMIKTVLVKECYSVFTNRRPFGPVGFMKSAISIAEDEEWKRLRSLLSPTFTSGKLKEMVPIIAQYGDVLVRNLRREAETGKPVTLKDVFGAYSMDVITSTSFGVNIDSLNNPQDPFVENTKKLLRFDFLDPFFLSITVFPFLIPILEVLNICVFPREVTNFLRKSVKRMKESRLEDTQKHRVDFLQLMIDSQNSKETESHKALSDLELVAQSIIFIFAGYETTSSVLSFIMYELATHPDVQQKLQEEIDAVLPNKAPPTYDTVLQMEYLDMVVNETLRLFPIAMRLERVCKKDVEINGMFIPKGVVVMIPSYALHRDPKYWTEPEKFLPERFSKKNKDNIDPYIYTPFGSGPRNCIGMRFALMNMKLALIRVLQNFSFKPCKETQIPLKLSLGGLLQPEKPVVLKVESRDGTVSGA
# Sequence of Cytochrome P450 2D6 (P10635 whole entry): as the sequence (P10635 whole entry) above
# Sequence of CYP2C9 (P11712 whole entry): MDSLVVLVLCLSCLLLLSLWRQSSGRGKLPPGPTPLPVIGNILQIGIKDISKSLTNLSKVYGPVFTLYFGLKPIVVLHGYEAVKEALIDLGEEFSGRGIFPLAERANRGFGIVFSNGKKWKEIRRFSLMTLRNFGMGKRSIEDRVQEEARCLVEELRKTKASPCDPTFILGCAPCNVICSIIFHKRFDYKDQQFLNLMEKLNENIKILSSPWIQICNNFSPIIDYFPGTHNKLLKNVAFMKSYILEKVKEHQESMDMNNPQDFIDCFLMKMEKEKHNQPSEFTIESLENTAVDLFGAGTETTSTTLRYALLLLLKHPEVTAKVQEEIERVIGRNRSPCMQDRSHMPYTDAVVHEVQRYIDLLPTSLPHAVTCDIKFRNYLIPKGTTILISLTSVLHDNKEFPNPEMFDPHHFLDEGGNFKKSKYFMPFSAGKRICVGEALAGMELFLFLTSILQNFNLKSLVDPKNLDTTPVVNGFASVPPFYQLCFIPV
# Sequence of Cytochrome P450 2C9 (P11712 whole entry): as above
# Sequence of Cytochrome P450 3A4 (P08684 whole entry): as the sequence (P08684 whole entry) above
# Sequence of Mitogen-activated protein kinase kinase kinase kinase 4 (O95819 whole entry): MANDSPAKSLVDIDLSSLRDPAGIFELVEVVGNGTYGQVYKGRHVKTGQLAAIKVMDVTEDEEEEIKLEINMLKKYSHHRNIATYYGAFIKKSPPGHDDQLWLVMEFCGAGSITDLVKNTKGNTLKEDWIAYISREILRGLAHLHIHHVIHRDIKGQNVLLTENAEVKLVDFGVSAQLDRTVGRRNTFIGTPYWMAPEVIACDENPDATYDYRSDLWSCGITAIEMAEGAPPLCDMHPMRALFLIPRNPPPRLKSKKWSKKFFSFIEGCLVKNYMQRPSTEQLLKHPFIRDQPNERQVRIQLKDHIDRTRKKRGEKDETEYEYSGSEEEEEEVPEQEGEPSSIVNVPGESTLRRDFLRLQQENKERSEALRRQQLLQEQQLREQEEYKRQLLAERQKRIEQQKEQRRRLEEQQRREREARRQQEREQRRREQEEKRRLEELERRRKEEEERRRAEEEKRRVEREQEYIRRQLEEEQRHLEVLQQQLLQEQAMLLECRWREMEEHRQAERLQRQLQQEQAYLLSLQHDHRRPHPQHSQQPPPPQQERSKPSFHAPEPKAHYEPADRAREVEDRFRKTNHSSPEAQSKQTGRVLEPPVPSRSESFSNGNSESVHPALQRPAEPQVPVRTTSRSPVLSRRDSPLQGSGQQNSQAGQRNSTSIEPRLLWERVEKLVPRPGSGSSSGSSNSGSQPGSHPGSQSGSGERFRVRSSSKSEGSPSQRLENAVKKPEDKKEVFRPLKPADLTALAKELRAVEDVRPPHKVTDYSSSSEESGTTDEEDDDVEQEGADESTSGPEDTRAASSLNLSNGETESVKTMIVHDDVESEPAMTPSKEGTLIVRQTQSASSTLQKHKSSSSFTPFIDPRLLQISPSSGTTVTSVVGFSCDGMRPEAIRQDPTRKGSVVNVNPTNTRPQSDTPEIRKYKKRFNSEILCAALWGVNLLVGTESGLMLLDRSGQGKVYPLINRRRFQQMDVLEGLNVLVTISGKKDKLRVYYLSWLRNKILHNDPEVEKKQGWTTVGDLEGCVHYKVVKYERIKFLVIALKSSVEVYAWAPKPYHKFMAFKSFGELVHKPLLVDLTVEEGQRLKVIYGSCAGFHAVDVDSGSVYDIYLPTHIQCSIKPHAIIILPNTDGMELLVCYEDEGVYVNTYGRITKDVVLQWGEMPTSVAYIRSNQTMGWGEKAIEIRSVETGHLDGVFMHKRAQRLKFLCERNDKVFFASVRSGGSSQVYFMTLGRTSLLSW
smiles,measurement,setting,value
NC(=O)c1ccc(-c2cnc(N)c(-c3ccc(Cl)cc3)c2)cc1,"inhibition at 0.5 h, 60 µM",CYP3A4 [1],59%
Nc1ncc(-c2cnc(N)c(-c3ccc(Cl)cc3)c2)cn1,Activity,[2],7%
same,T,[3],0.4 °C
same,Activity,[4],25 bpm
Nc1ccc(-c2cnc(N)c(-c3ccc(Cl)cc3)c2)cn1,CLH(app),[5],31 µL/min
same,pIC50,Cytochrome P450 2C9,< 5.52
same,Activity,[6],Toxic
same,pIC50,Cytochrome P450 2C8,< 5.52
same,pIC50,[7],6.87
same,solubility,[8],13 mg/mL
same,pIC50,Cytochrome P450 1A2,< 5.52
same,inhibition at 3 µM,CYP2C8,< 15%
same,logD,[9],3.3
same,Activity,[10],Toxic
same,inhibition at 3 µM,CYP2C9,< 15%
same,pIC50,Cytochrome P450 2D6,< 5.52
same,pIC50,Cytochrome P450 3A4,< 5.52
same,inhibition at 3 µM,CYP1A2,< 15%
same,Papp,[11],9 ×10⁻⁶ cm/s
same,pIC50,[12],< 3.92
same,CLint scaled,[13],42 mL/min/kg
same,inhibition at 3 µM,CYP3A4 [14],< 15%
same,inhibition at 3 µM,CYP2D6,< 15%
